Patent US12559529B2, “NPY2 receptor agonists” (Boehringer Ingelheim International GmbH, priority 2019, dated 2026)

Molecular target: T1, Human Neuropeptide Y2 Receptor (Homo sapiens, UniProt P49146)
T1 construct: purchased CHEMICON HTS066M
T1 sequence (P49146 1-381): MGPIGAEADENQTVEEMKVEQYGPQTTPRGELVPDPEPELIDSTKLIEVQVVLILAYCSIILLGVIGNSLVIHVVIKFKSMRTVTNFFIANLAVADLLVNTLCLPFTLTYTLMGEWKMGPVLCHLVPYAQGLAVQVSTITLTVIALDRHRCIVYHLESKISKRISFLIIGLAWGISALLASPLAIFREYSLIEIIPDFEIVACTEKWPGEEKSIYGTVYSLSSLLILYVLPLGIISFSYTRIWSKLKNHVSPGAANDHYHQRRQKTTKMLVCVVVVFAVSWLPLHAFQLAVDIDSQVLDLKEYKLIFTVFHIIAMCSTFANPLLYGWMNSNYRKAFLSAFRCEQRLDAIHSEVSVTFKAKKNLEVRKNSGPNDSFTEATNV
Assay: Radioligand binding competition assay (RLB)
Conditions: Table 3; human 125I-PYY (1-36) 0.02 nM, Y2 receptor membranes; read-out: Ki
Method in brief: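 Competition binding at commercial human NPY Y2 membrane preparations, 0.5 μg protein per well, 2 h incubation at room temperature. Bound and free ligand were separated on GF/C filters and counted; IC50 was fitted by nonlinear regression.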

| Compound | Ki |
| --- | --- |
| CC(C)CC(=O)N[C@@H](C)C(=O)N1CCC[C@H]1C(=O)N[C@@H](CCC(=O)O)C(=O)N[C@@H](CCCCNC(=O)COCCOCCNC(=O)COCCOCCNC(=O)CC[C@H](NC(=O)CCCCCCCCCCCCCCCCC(=O)O)C(=O)O)C(=O)N1CCC[C@H]1C(=O)N[C@@H](CCC(=O)O)C(=O)N[C@@H](C)C(=O)N[C@@H](CC(=O)O)C(=O)N[C@@H](C)C(=O)N[C@@H](CO)C(=O)N1CCC[C@H]1C(=O)N[C@@H](CCC(=O)O)C(=O)N[C@@H](CCC(=O)O)C(=O)N[C@@H](CC(C)C)C(=O)N[C@@H](CCC(N)=O)C(=O)N[C@@H](CCCNC(=N)N)C(=O)N[C@@H](Cc1ccc(O)cc1)C(=O)N[C@@H](Cc1ccc(O)cc1)C(=O)N[C@H](C(=O)N[C@@H](C)C(=O)N[C@@H](CC(C)C)C(=O)N[C@@H](CCCNC(=N)N)C(=O)N[C@@H](Cc1c[nH]cn1)C(=O)N[C@@H](Cc1ccc(O)cc1)C(=O)N[C@@H](Cc1ccc(O)cc1)C(=O)N[C@@H](CC(N)=O)C(=O)N[C@@H](Cc1c[nH]c2ccccc12)C(=O)N[C@@H](CC(C)C)C(=O)N[C@H](C(=O)N[C@@H](CCCNC(=N)N)C(=O)N[C@@H](CCC(N)=O)C(=O)N[C@@H](CCCNC(=N)N)C(=O)N[C@@H](Cc1ccc(O)cc1)C(N)=O)[C@@H](C)O)C(C)C [Compound 181, N{alpha-4}-(3-methylbutanoyl)-N{epsilon-7}-[2-(2-{2-[2-(2-{2-[(4S)-4-carboxy-4-(17-carboxyheptadecanamido)butanamido]ethoxy}ethoxy)acetamido]ethoxy}ethoxy)acetamido]-[4A,7K,9E,10A,18Q,22V,23A,28Y,30W,31L]hPYY (4-36)] | 0.67 nM |
| CC(C)CC(=O)N[C@@H](C)C(=O)N1CCC[C@H]1C(=O)N[C@@H](CCC(=O)O)C(=O)N[C@@H](CCCCNC(=O)COCCOCCNC(=O)COCCOCCNC(=O)CC[C@H](NC(=O)CCCCCCCCCCCCCCCCC(=O)O)C(=O)O)C(=O)N1CCC[C@H]1C(=O)N[C@@H](CCC(=O)O)C(=O)N[C@@H](CCC(=O)O)C(=O)N[C@@H](CC(=O)O)C(=O)NCC(=O)N[C@@H](CO)C(=O)N1CCC[C@H]1C(=O)N[C@@H](CCC(=O)O)C(=O)N[C@@H](CCC(=O)O)C(=O)N[C@@H](CC(C)C)C(=O)N[C@@H](CCC(N)=O)C(=O)N[C@@H](CCCNC(=N)N)C(=O)N[C@@H](Cc1ccc(O)cc1)C(=O)N[C@@H](Cc1ccc(O)cc1)C(=O)N[C@H](C(=O)N[C@@H](CCC(=O)O)C(=O)N[C@@H](CC(C)C)C(=O)N[C@@H](CCCNC(=N)N)C(=O)N[C@@H](Cc1c[nH]cn1)C(=O)N[C@@H](Cc1ccc(O)cc1)C(=O)N[C@@H](Cc1ccc(O)cc1)C(=O)N[C@@H](CC(N)=O)C(=O)N[C@@H](Cc1c[nH]c2ccccc12)C(=O)N[C@@H](CC(C)C)C(=O)N[C@H](C(=O)N[C@@H](CCCNC(=N)N)C(=O)N[C@@H](CCC(N)=O)C(=O)N[C@@H](CCCNC(=N)N)C(=O)N[C@@H](Cc1ccc(O)cc1)C(N)=O)[C@@H](C)O)C(C)C [Compound 182, N{alpha-4}-(3-methylbutanoyl)-N{epsilon-7}-[2-(2-{2-[2-(2-{2-[(4S)-4-carboxy-4-(17-carboxyheptadecanamido)butanamido]ethoxy}ethoxy)acetamido]ethoxy}ethoxy)acetamido]-[4A,7K,9E,12G,18Q,22V,23E,28Y,30W,31L]hPYY (4-36)] | 3.45 nM |
| CC(C)CC(=O)N[C@@H](C)C(=O)N1CCC[C@H]1C(=O)N[C@@H](CCC(=O)O)C(=O)N[C@@H](CCCCNC(=O)COCCOCCNC(=O)COCCOCCNC(=O)CC[C@H](NC(=O)CCCCCCCCCCCCCCCCC(=O)O)C(=O)O)C(=O)N1CCC[C@H]1C(=O)N1CCC[C@H]1C(=O)N[C@@H](CCC(=O)O)C(=O)N[C@@H](CC(=O)O)C(=O)N[C@@H](C)C(=O)N[C@@H](CO)C(=O)N1CCC[C@H]1C(=O)N[C@@H](CCC(=O)O)C(=O)N[C@@H](CCC(=O)O)C(=O)N[C@@H](CC(C)C)C(=O)N[C@@H](CCC(N)=O)C(=O)N[C@@H](CCCNC(=N)N)C(=O)N[C@@H](Cc1ccc(O)cc1)C(=O)N[C@@H](Cc1ccc(O)cc1)C(=O)N[C@H](C(=O)N[C@@H](CO)C(=O)N[C@@H](CC(C)C)C(=O)N[C@@H](CCCNC(=N)N)C(=O)N[C@@H](Cc1c[nH]cn1)C(=O)N[C@@H](Cc1ccc(O)cc1)C(=O)N[C@@H](Cc1ccc(O)cc1)C(=O)N[C@@H](CC(N)=O)C(=O)N[C@@H](Cc1c[nH]c2ccccc12)C(=O)N[C@@H](CC(C)C)C(=O)N[C@H](C(=O)N[C@@H](CCCNC(=N)N)C(=O)N[C@@H](CCC(N)=O)C(=O)N[C@@H](CCCNC(=N)N)C(=O)N[C@@H](Cc1ccc(O)cc1)C(N)=O)[C@@H](C)O)C(C)C [Compound 183, N{alpha-4}-(3-methylbutanoyl)-N{epsilon-7}-[2-(2-{2-[2-(2-{2-[(4S)-4-carboxy-4-(17-carboxyheptadecanamido)butanamido]ethoxy}ethoxy)acetamido]ethoxy}ethoxy)acetamido]-[4A,7K,9P,18Q,22V,28Y,30W,31L]hPYY (4-36)] | 0.7 nM |
| CC(C)CC(=O)N[C@@H](C)C(=O)N1CCC[C@H]1C(=O)N[C@@H](CCC(=O)O)C(=O)N[C@@H](CCCCNC(=O)COCCOCCNC(=O)COCCOCCNC(=O)CC[C@H](NC(=O)CCCCCCCCCCCCCCCCC(=O)O)C(=O)O)C(=O)N1CCC[C@H]1C(=O)N[C@@H](CCC(=O)O)C(=O)N[C@@H](CCC(=O)O)C(=O)N[C@@H](C)C(=O)N[C@@H](C)C(=O)N[C@@H](CO)C(=O)N1CCC[C@H]1C(=O)N[C@@H](CCC(=O)O)C(=O)N[C@@H](CCC(=O)O)C(=O)N[C@@H](CC(C)C)C(=O)N[C@@H](CCC(N)=O)C(=O)N[C@@H](CCCNC(=N)N)C(=O)N[C@@H](Cc1ccc(O)cc1)C(=O)N[C@@H](Cc1ccc(O)cc1)C(=O)N[C@H](C(=O)N[C@H](C(=O)N[C@@H](CC(C)C)C(=O)N[C@@H](CCCNC(=N)N)C(=O)N[C@@H](Cc1c[nH]cn1)C(=O)N[C@@H](Cc1ccc(O)cc1)C(=O)N[C@@H](Cc1ccc(O)cc1)C(=O)N[C@@H](CC(N)=O)C(=O)N[C@@H](Cc1c[nH]c2ccccc12)C(=O)N[C@@H](CC(C)C)C(=O)N[C@H](C(=O)N[C@@H](CCCNC(=N)N)C(=O)N[C@@H](CCC(N)=O)C(=O)N[C@@H](CCCNC(=N)N)C(=O)N[C@@H](Cc1ccc(O)cc1)C(N)=O)[C@@H](C)O)[C@@H](C)O)C(C)C [Compound 184, N{alpha-4}-(3-methylbutanoyl)-N{epsilon-7}-[2-(2-{2-[2-(2-{2-[(4S)-4-carboxy-4-(17-carboxyheptadecanamido)butanamido]ethoxy}ethoxy)acetamido]ethoxy}ethoxy)acetamido]-[4A,7K,9E,11A,18Q,22V,23T,28Y,30W,31L]hPYY (4-36)] | 2.06 nM |
